{"source": "patent US20080125408A1", "about": "“PENEM PRODRUG” (Pfizer Inc, priority 2006, published 2008)", "key": {"[1]": {"test": "Whole blood conversion efficiency to sulopenem", "type": "in vitro ADME", "details": "heparinized whole blood, 37° C.", "experimental": "Stability and conversion efficiency were assessed in 1 mL incubations with heparinized whole blood at 37° C. For both S9 homogenates and whole blood incubations, aliquots (75 μL) were obtained at 0, 0.5, 1, 2, 3, 5, 10, and 20 minutes and quenched in 150 μL of 80/20 acetonitrile/100 mM ammonium acetate pH 4.5 containing an internal standard (ampicillin, 5 μg/mL). Samples were centrifuged at 3000 g for 10 minutes and the supernatants transferred to injection vials. First order degradation of the prodrug was monitored by LC/MS/MS as described below. Conversion to sulopenem was expressed as a percentage of the molar equivalent (50 μM) in a fortified sample. The results of the S9 and whole blood stability and conversion studies are shown in Table 2, where single values represent an average of two duplicate determinations."}, "[2]": {"test": "Liver S9 stability and conversion efficiency to sulopenem", "type": "in vitro ADME, human", "experimental": "Oral bioavailability can be predicted variously by factors including one or more of (1) GI tract stability, (2) Caco-2 permeability, (3) efficiency of conversion to sulopenem, and (4) high solubility. Accordingly, the sulopenem prodrugs of the invention were evaluated, as detailed below, for stability in human intestinal juice (HIJ), efficiency of conversion to sulopenem in human liver homogenate, whole blood conversion and solubility as measured in phosphate buffer pH 5.0. Liver S9 was prepared fresh from liver chunks stored at −70° C. for each analysis completed. Approximately 5 g of frozen liver tissue was homogenized to uniformity in 15 mL of ice cold 100 mM potassium phosphate (pH 7.4) buffer. The homogenate was then centrifuged at 9000 g for 20 minutes at 5° C. to isolate the S9 supernatant fraction. Each incubation was run at a 1:10 dilution of the S9 supernatant in 100 mM potassium phosphate (pH 7.4) buffer. Reactions (1 mL) were initiated by the addition of substrate (50 μM final) at 37° C. Stability and conversion efficiency were assessed in 1 mL incubations with heparinized whole blood at 37° C. For both S9 homogenates and whole blood incubations, aliquots (75 μL) were obtained at 0, 0.5, 1, 2, 3, 5, 10, and 20 minutes and quenched in 150 μL of 80/20 acetonitrile/100 mM ammonium acetate pH 4.5 containing an internal standard (ampicillin, 5 μg/mL). Samples were centrifuged at 3000 g for 10 minutes and the supernatants transferred to injection vials. First order degradation of the prodrug was monitored by LC/MS/MS as described below. Conversion to sulopenem was expressed as a percentage of the molar equivalent (50 μM) in a fortified sample. The results of the S9 and whole blood stability and conversion studies are shown in Table 2, where single values represent an average of two duplicate determinations."}, "Caco-2 cells": {"system": "Caco-2 cells", "test": "Caco-2 permeability studies (A→B assay)"}, "[3]": {"test": "Human Intestinal Juice (HIJ) stability studies", "type": "in vitro ADME", "details": "pooled HIJ from 4 subjects, buffered pH 7.4, 37° C., substrate 1-300 μM", "experimental": "In the HIJ experiments, HIJ from 4 individual subjects (1 mL each) was pooled with 1 mL of 600 mM potassium phosphate buffer pH 7.4. Aliquots of 300 μL×6 of the buffered human intestinal juice were incubated at 37° C. following fortification of substrate at concentrations of 300, 100, 30, 10, 3, and 1 μM. Two prodrug compounds could be run at the same time. Samples of 35 μL were taken at 0, 0.5, 1, 2, 10, and 20 minutes and quenched with 70 μL of 80/20 acetonitrile/100 mM ammonium acetate pH 4.5 containing an internal standard (ampicillin, 5 μg/mL). Samples were centrifuged at 3000 g for 10 minutes and the supernatants transferred to injection vials. First order degradation of the prodrug was monitored by LC/MS/MS as described below. The percentage of prodrug remaining versus time at each concentration was fitted to a first order decay function to determine the substrate depletion rate constant or kdep. A linear-log plot of kdep versus concentration could be fitted with the following equation where: [formula] […] In Michaelis-Menton terms, intrinsic clearance CLint represents the ratio of Vmax/Km when [S] is well below the Km. Substrate units for these studies were reported in μM and intrinsic clearance (CIint) in mL/min."}, "[4]": {"test": "Equilibrium solubility in phosphate buffer pH 5", "details": "equilibrium, 25 mM phosphate buffer (pH 5), ambient temperature, up to 48 hours"}}}
{"compound": "CCCCc1oc(=O)oc1COC(=O)C1=C(S[C@H]2CC[S@@+]([O-])C2)S[C@@H]2[C@@H]([C@@H](C)O)C(=O)N12", "note": "[Compound 3, (5-(3-methylpropyl)-2-oxo-1,3-dioxol-4-yl)methyl (5R,6S)-6-[(1R)-1-hydroxyethyl]-7-oxo-3-[[(1R,3S)-tetrahydro-1-oxido-3-thienyl]thio]-4-thia-1-azabicyclo[3.2.0]hept-2-ene-2-carboxylate]", "values": [{"measurement": "Whole Blood Conv", "setting": "[1]", "value": 84, "unit": "%"}, {"measurement": "S9 Conv", "setting": "[2]; conversion to sulopenem, % of molar equivalent (50 μM), liver S9 1:10, pH 7.4, 37° C.", "value": 67, "unit": "%"}, {"measurement": "S9 Half-life", "setting": "[2]; prodrug degradation, liver S9 1:10, 50 μM, pH 7.4, 37° C.", "value": 6.09, "unit": "min"}, {"measurement": "Caco-2 Permeability", "setting": "Caco-2 cells; Papp A→B, 100 μM prodrug, apical pH 6.5 / basolateral pH 7.4", "value": 5.02, "unit": "×10⁻⁶ cm/s"}, {"measurement": "increase in Caco-2 permeability compared to C1", "setting": "Caco-2 cells; relative to comparative compound C1", "value": "~10", "unit": "fold"}, {"measurement": "HIJ CLint", "setting": "[3]", "value": 0.16, "unit": "mL/min"}, {"measurement": "Km", "setting": "[3]", "value": 41, "unit": "µM"}, {"measurement": "solubility", "setting": "[4]", "value": 809, "unit": "µg/mL"}]}
